SMILES strings stand for the structures.
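Further: ALL cell lines in 384-well plates, five doses spanning 10,000-fold, each plate scaled between vehicle and 100 µmol/L benzalkonium chloride controls, sDSS an adapted area-under-curve metric.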

For the first test, the system named is COG-LL-402h. The experiment in a line: selective drug sensitivity score (sDSS, relative to normal bone marrow) (sDSS (score)); higher = more potent and effective on the cell line relative to normal bone marrow cells. The conditions noted are these: 72 h.
Consider `NCCNc1ccc(NCCN)c2c1C(=O)c1ccncc1C2=O` [Pixantrone] (top concentration 10000 nM), for which the “selective drug sensitivity score” value was -2.76.
The same measure, in the same setting: the result for `c1cc(CN2CCCNCCNCCCNCC2)ccc1CN1CCCNCCNCCCNCC1` [Plerixafor] (top concentration 10000 nM) reads 0; that for `O=C(c1ccc(OCCN2CCCCC2)cc1)c1c(-c2ccc(O)cc2)sc2cc(O)ccc12` [Raloxifene] (top concentration 10000 nM), -1.68; that for `CN(C)C(=O)c1cc2cnc(Nc3ccc(N4CCNCC4)cn3)nc2n1C1CCCC1` [Ribociclib] (top concentration 10000 nM), 4.58.
The same measure, in the same setting: the result for `CN1CCN(CCOc2cc(OC3CCOCC3)c3c(Nc4c(Cl)ccc5c4OCO5)ncnc3c2)CC1` [Saracatinib] (top concentration 10000 nM) reads 8.68.
Still for that read-out and setting: the figure for `C=CC(=O)Nc1cccc(Nc2nc(Nc3ccc(OCCOC)cc3)ncc2F)c1` [Spebrutinib] (top concentration 1000 nM) is 0.84; for `C[C@@H]1CN(Cc2ccc(F)cc2)[C@@H](C)CN1C(=O)c1cc2c(C(=O)C(=O)N(C)C)cn(C)c2cc1Cl` [Talmapimod] (top concentration 10000 nM) it is 0; for `C[C@@H](C(=O)O)c1ccc(-c2ccccc2)c(F)c1` [Tarenflurbil] (top concentration 10000 nM) it is -0.16.
Regarding `CNC(=O)c1cc(COc2nnc(Nc3ccc(Cl)cc3)c3ccoc23)ccn1` [Telatinib] (top concentration 10000 nM), the “selective drug sensitivity score” value turned out to be 0.
The same measure, in the same setting: the result for `O=c1sn(-c2cccc3ccccc23)c(=O)n1Cc1ccccc1` [Tideglusib] (top concentration 3000 nM) reads -0.3; that for `COc1cc2nccc(Oc3ccc(NC(=O)Nc4cc(C)on4)c(Cl)c3)c2cc1OC` [Tivozanib] (top concentration 10000 nM), 3.96.
On to `Cc1cc(Nc2cc(N3CCN(C)CC3)nc(Sc3ccc(NC(=O)C4CC4)cc3)n2)n[nH]1` [Tozasertib] (top concentration 10000 nM), for which the “selective drug sensitivity score” value came to 15.4.
Still for that read-out and setting: the figure for `CC1=C(/C=C/C(C)=C/C=C/C(C)=C/C(=O)O)C(C)(C)CCC1` [Tretinoin] (top concentration 10000 nM) is -2.4.
The same measure, in the same setting: the figure for `COC(=O)c1ccc2c(c1)[nH]c1ncnc(NCCCN3CCCCC3)c12` [UM729] (top concentration 10000 nM) is 6.34; for `COc1cc2c(NC3CCN(C(C)C)CC3)nc(N3CCC(F)(F)CC3)nc2cc1OCCCN1CCCC1` [UNC0642] (top concentration 10000 nM) it is 2.66; for `O=C(c1ccc(C(=O)N2CCC(N3CCCC3)CC2)c(Nc2ccccc2)c1)N1CCC(N2CCCC2)CC1` [UNC1215] (top concentration 10000 nM) it is 0.
On the same count and under the same terms, the figure for `CCCC(CCC)C(=O)O` [Valproic_acid] (top concentration 1000000 nM) is 0; for `Clc1ccc(Nc2nnc(Cc3ccncc3)c3ccccc23)cc1` [Vatalanib] (top concentration 10000 nM) it is 0; for `CCCS(=O)(=O)Nc1ccc(F)c(C(=O)c2c[nH]c3ncc(-c4ccc(Cl)cc4)cc23)c1F` [Vemurafenib] (top concentration 10000 nM) it is -1.14.

A further test deals with JURKAT. Described as above. As to conditions: 72 h.
As for `NCCNc1ccc(NCCN)c2c1C(=O)c1ccncc1C2=O` [Pixantrone] (top concentration 10000 nM), the “selective drug sensitivity score” value is -2.76.
The same measure, in the same setting: the figure for `c1cc(CN2CCCNCCNCCCNCC2)ccc1CN1CCCNCCNCCCNCC1` [Plerixafor] (top concentration 10000 nM) is 0.
The same measure, in the same setting: the result for `O=C(c1ccc(OCCN2CCCCC2)cc1)c1c(-c2ccc(O)cc2)sc2cc(O)ccc12` [Raloxifene] (top concentration 10000 nM) reads -0.58.
Same read-out and setting: the result for `CN(C)C(=O)c1cc2cnc(Nc3ccc(N4CCNCC4)cn3)nc2n1C1CCCC1` [Ribociclib] (top concentration 10000 nM) reads 0.48.
`CN1CCN(CCOc2cc(OC3CCOCC3)c3c(Nc4c(Cl)ccc5c4OCO5)ncnc3c2)CC1` [Saracatinib] (top concentration 10000 nM): the “selective drug sensitivity score” value is -0.62.
Same read-out and setting: the figure for `C=CC(=O)Nc1cccc(Nc2nc(Nc3ccc(OCCOC)cc3)ncc2F)c1` [Spebrutinib] (top concentration 1000 nM) is 0.74.
Same read-out and setting: the result for `C[C@@H]1CN(Cc2ccc(F)cc2)[C@@H](C)CN1C(=O)c1cc2c(C(=O)C(=O)N(C)C)cn(C)c2cc1Cl` [Talmapimod] (top concentration 10000 nM) reads 0.9; that for `C[C@@H](C(=O)O)c1ccc(-c2ccccc2)c(F)c1` [Tarenflurbil] (top concentration 10000 nM), -0.16.
Same read-out and setting: the figure for `CNC(=O)c1cc(COc2nnc(Nc3ccc(Cl)cc3)c3ccoc23)ccn1` [Telatinib] (top concentration 10000 nM) is 0; for `O=c1sn(-c2cccc3ccccc23)c(=O)n1Cc1ccccc1` [Tideglusib] (top concentration 3000 nM) it is -0.3.
Regarding `COc1cc2nccc(Oc3ccc(NC(=O)Nc4cc(C)on4)c(Cl)c3)c2cc1OC` [Tivozanib] (top concentration 10000 nM), the “selective drug sensitivity score” value came out at 0.96.
Same read-out and setting: the figure for `Cc1cc(Nc2cc(N3CCN(C)CC3)nc(Sc3ccc(NC(=O)C4CC4)cc3)n2)n[nH]1` [Tozasertib] (top concentration 10000 nM) is 1.76; for `CC1=C(/C=C/C(C)=C/C=C/C(C)=C/C(=O)O)C(C)(C)CCC1` [Tretinoin] (top concentration 10000 nM) it is -2.4; for `COC(=O)c1ccc2c(c1)[nH]c1ncnc(NCCCN3CCCCC3)c12` [UM729] (top concentration 10000 nM) it is -0.06.
Same read-out and setting: the figure for `COc1cc2c(NC3CCN(C(C)C)CC3)nc(N3CCC(F)(F)CC3)nc2cc1OCCCN1CCCC1` [UNC0642] (top concentration 10000 nM) is -3.64; for `O=C(c1ccc(C(=O)N2CCC(N3CCCC3)CC2)c(Nc2ccccc2)c1)N1CCC(N2CCCC2)CC1` [UNC1215] (top concentration 10000 nM) it is 0.
On the same count and under the same terms, the result for `CCCC(CCC)C(=O)O` [Valproic_acid] (top concentration 1000000 nM) reads 0; that for `Clc1ccc(Nc2nnc(Cc3ccncc3)c3ccccc23)cc1` [Vatalanib] (top concentration 10000 nM), 0; that for `CCCS(=O)(=O)Nc1ccc(F)c(C(=O)c2c[nH]c3ncc(-c4ccc(Cl)cc4)cc23)c1F` [Vemurafenib] (top concentration 10000 nM), 2.26.

The next test relates to KASUMI-10. The description is as above. As to conditions: 72 h.
On to `NCCNc1ccc(NCCN)c2c1C(=O)c1ccncc1C2=O` [Pixantrone] (top concentration 10000 nM), for which the “selective drug sensitivity score” value is -1.36.
The same measure, in the same setting: the result for `c1cc(CN2CCCNCCNCCCNCC2)ccc1CN1CCCNCCNCCCNCC1` [Plerixafor] (top concentration 10000 nM) reads 0; that for `O=C(c1ccc(OCCN2CCCCC2)cc1)c1c(-c2ccc(O)cc2)sc2cc(O)ccc12` [Raloxifene] (top concentration 10000 nM), -2.28.
For the compound `CN(C)C(=O)c1cc2cnc(Nc3ccc(N4CCNCC4)cn3)nc2n1C1CCCC1` [Ribociclib] (top concentration 10000 nM), the “selective drug sensitivity score” value was 0.08.
Same read-out and setting: the figure for `CN1CCN(CCOc2cc(OC3CCOCC3)c3c(Nc4c(Cl)ccc5c4OCO5)ncnc3c2)CC1` [Saracatinib] (top concentration 10000 nM) is 1.48.
Still for that read-out and setting: the result for `C=CC(=O)Nc1cccc(Nc2nc(Nc3ccc(OCCOC)cc3)ncc2F)c1` [Spebrutinib] (top concentration 1000 nM) reads 3.64; that for `C[C@@H]1CN(Cc2ccc(F)cc2)[C@@H](C)CN1C(=O)c1cc2c(C(=O)C(=O)N(C)C)cn(C)c2cc1Cl` [Talmapimod] (top concentration 10000 nM), 0; that for `C[C@@H](C(=O)O)c1ccc(-c2ccccc2)c(F)c1` [Tarenflurbil] (top concentration 10000 nM), -0.16.
Same read-out and setting: the result for `CNC(=O)c1cc(COc2nnc(Nc3ccc(Cl)cc3)c3ccoc23)ccn1` [Telatinib] (top concentration 10000 nM) reads 0.

Source of the values: the supplement of paper PMC8967900.
